Drawing on patent US6734190B2, “Dihydrodipyrazolopyridinylbenzamide and -sulfonamide inhibitors of B7-1” (Wyeth, priority 2002, dated 2004), this text covers IC50 and melting point for 39 molecules.

One data set concerns the target T1, B7-1/CD28 (Homo sapiens, UniProt P33681).
T1 sequence (P33681 35-242 limits assumed): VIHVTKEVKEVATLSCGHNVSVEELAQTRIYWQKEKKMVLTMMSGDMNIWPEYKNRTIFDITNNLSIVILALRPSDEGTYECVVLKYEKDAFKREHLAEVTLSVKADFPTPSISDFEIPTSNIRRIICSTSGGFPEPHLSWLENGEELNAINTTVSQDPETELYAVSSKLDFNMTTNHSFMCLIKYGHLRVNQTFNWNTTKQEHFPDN
Nature of the data set: CD28/B7-1 ELISA (B7-1/CD28 binding inhibition). Particulars: CD28-Fc coated wells; B7-1-Fc-biotin/streptavidin-alkaline phosphatase detection complex; 1% DMSO. As to the method: Evaluation of B7-1/CD28 Binding Inhibition for Test Compounds
Wells are coated with 300 ng CD28-Fc in carbonate buffer (pH 9.4) overnight at 4° C., blocked with 1% bovine serum albumin in tris-buffered saline (TBS) for 1 h at 22° C. and washed 3 times in TBS prior to assay. The detection complex is formed as follows: B7-1-Fc-biotin, prepared using NHS-LC-biotin (Pierce #21335) according to the manufacturers instructions (4.1 moles biotinimole Fc), is added at 0.8 ug/ml to streptavidin-alkaline phosphatase (Caltag Sa1008) at 1:1000 in TBS. A solution of test compound in dimethylsulfoxide (1% final) are added to this complex and incubated 30 min at 22° C. Detection complex (+/−inhibitors) is then added to the CD28 coated wells for 25 min at 22° C., washed 5 times with TBS, developed with the colorimetric substrate pNPP (Pierce #34045) in diethanolamine/MgCl2 buffer (pH 9.5) and read at 405 nm. The inhibition constant (IC50) is calculated by subtracting background binding and comparing to uninhibited (DMSO alone) controls. The inhibition constant represents the concentration of test compound required to achieve 50% inhibition.

As for `Cn1ncc2c3[nH]n(-c4cccc(C(=O)NCc5ccc(N)cc5)c4)c(=O)c3c(-c3cccc(C(F)(F)F)c3)nc21` [Example 16], the melting point is 183 °C (dec.). Besides, the IC50 at B7-1/CD28 was 57 nM.

Turning to `Cn1ncc2c3[nH]n(-c4cccc(C(=O)N5CCCC5)c4)c(=O)c3c(-c3cccc(C(F)(F)F)c3)nc21` [Example 11, 6-methyl-2-[3-(1-pyrrolidinylcarbonyl)phenyl]-4-[3-(trifluoromethyl)phenyl]-1,6-dihydrodipyrazolo[3,4-b:3,4-d]pyridin-3(2H)-one], the melting point lay in the range of 255 to 258 °C. The IC50 on B7-1/CD28 came out at 44 nM.

Turning to `CC(=O)c1cccc(NC(=O)c2ccc(-n3[nH]c4c(c(-c5cccc(C(F)(F)F)c5)nc5c4cnn5C)c3=O)cc2)c1` [Example 38], the melting point is 300 °C (dec.). Moreover, on B7-1/CD28, the IC50 was found to be 44 nM.

`CC(O)c1cccc(NC(=O)c2ccc(-n3[nH]c4c(c(-c5cccc(C(F)(F)F)c5)nc5c4cnn5C)c3=O)cc2)c1` (stereo not drawn) [Example 25] returned a melting point of 251 to 254 °C. Moreover, the IC50 at B7-1/CD28 worked out at 3 nM.

The molecule `Cn1ncc2c3[nH]n(-c4ccc(C(=O)N5CCOCC5)c(F)c4)c(=O)c3c(-c3cccc(C(F)(F)F)c3)nc21` [Example 30] registered a melting point of 176 to 179 °C. In addition, the IC50 on B7-1/CD28 came out at 310 nM.

On to `Cn1ncc2c3[nH]n(-c4ccc(C(=O)N5CCCC(CO)C5)cc4)c(=O)c3c(-c3cccc(C(F)(F)F)c3)nc21` (stereo not drawn) [Example 36], for which the melting point fell in the range of 189.8 to 192.7 °C. Further, the IC50 on B7-1/CD28 stood at 180 nM.

`Cn1ncc2c3[nH]n(-c4cccc(C(=O)N5CCC[C@@H]5C(=O)O)c4)c(=O)c3c(-c3cccc(C(F)(F)F)c3)nc21` [Example 13, (2R)-1-[3-(6-methyl-3-oxo-4-[3-(trifluoromethyl)phenyl]-3,6-dihydrodipyrazolo[3,4-b:3,4-d]pyridin-2(1H)-yl)benzoyl]-2-pyrrolidinecarboxylic acid]: the melting point lay in the range of 199 to 202 °C. For the same molecule, the IC50 at B7-1/CD28 was found to be 20 nM.

For `Cn1ncc2c3[nH]n(-c4ccc(Cl)c(C(=O)N5CCC[C@@H]5C(=O)O)c4)c(=O)c3c(-c3cccc(C(F)(F)F)c3)nc21` [Example 22, 1-{2-chloro-5-[6-methyl-3-oxo-4-[3-(trifluoromethyl)pheny]-3,6-dihydrodipyrazolo[3,4-b:3′,4′-d]pyridin-2(1H)-yl]benzoyl}-D-proline], the melting point fell in the range of 214 to 218 °C. For the same molecule, on B7-1/CD28, the IC50 is 44 nM.

The molecule `CC(O)c1cccc(NC(=O)c2ccc(-n3[nH]c4c(c(-c5cccc(C(F)(F)F)c5)nc5c4cnn5C)c3=O)cc2F)c1` (stereo not drawn) [Example 24] gave a melting point of over 350 °C. In addition, the IC50 at B7-1/CD28 was 110 nM.

Molecule `Cn1ncc2c3[nH]n(-c4ccc(C(=O)NCCCO)cc4)c(=O)c3c(-c3cccc(C(F)(F)F)c3)nc21` [Example 28] yielded a melting point of 193 to 195 °C. The same molecule had an IC50 on B7-1/CD28 of 98 nM.

On to `Cn1ncc2c3[nH]n(-c4cccc(C(=O)NCc5ccc(O)c(O)c5)c4)c(=O)c3c(-c3cccc(C(F)(F)F)c3)nc21` [Example 18, N-(3,4-dihydroxybenzyl)-3-(6-methyl-3-oxo-4-[3-(trifluoromethyl)phenyl]-3,6-dihydrodipyrazolo[3,4-b:3,4-d]pyridin-2(1H)-yl)benzamide], for which the melting point fell in the range of 177.7 to 179.8 °C. For the same molecule, the IC50 at B7-1/CD28 was determined as 9 nM.

The molecule `Cn1ncc2c3[nH]n(-c4cccc(C(=O)N5CCC[C@H]5C(=O)O)c4)c(=O)c3c(-c3cccc(C(F)(F)F)c3)nc21` [Example 69] displayed a melting point of 168 to 171 °C. The same molecule came in with an IC50 at B7-1/CD28 of 100 nM.

The molecule `Cn1ncc2c3[nH]n(-c4ccc(Cl)c(C(=O)NCc5ccc(O)c(O)c5)c4)c(=O)c3c(-c3cccc(C(F)(F)F)c3)nc21` [Example 21] returned a melting point of 212 to 215 °C. For the same molecule, at B7-1/CD28, the IC50 came out at 22 nM.

The molecule `Cn1ncc2c3[nH]n(-c4ccc(C(=O)NCCCCCN)cc4)c(=O)c3c(-c3cccc(C(F)(F)F)c3)nc21` [Example 39] displayed a melting point of 234.5 to 236 °C. At B7-1/CD28, this molecule displayed an IC50 of 140 nM.

`Cn1ncc2c3[nH]n(-c4ccc(C(=O)NCCCCO)cc4)c(=O)c3c(-c3cccc(C(F)(F)F)c3)nc21` [Example 37]: the melting point is 280 °C (dec.). The molecule further returned an IC50 on B7-1/CD28 of 88 nM.

For `COCCNC(=O)c1cccc(-n2[nH]c3c(c(-c4cccc(C(F)(F)F)c4)nc4c3cnn4C)c2=O)c1` [Example 20], the IC50 at B7-1/CD28 amounted to 62 nM.

At B7-1/CD28, `Cn1ncc2c3[nH]n(-c4ccc(C(=O)Nc5ccccc5CO)cc4)c(=O)c3c(-c3cccc(C(F)(F)F)c3)nc21` [Example 86] gave a 50% inhibitory concentration (IC50) of 40 nM.

As to `CN(CCC#N)C(=O)c1cccc(-n2[nH]c3c(c(-c4cccc(C(F)(F)F)c4)nc4c3cnn4C)c2=O)c1` [Example 61], the IC50 at B7-1/CD28 is 330 nM.

In turn, `Cn1ncc2c3[nH]n(-c4cccc(C(=O)Nc5ccc(CCO)cc5)c4)c(=O)c3c(-c3cccc(C(F)(F)F)c3)nc21` [Example 55] came in with an IC50 at B7-1/CD28 of 110 nM.

For the molecule `Cn1ncc2c3[nH]n(-c4cccc(C(=O)Nc5ccc(F)c(F)c5)c4)c(=O)c3c(-c3cccc(C(F)(F)F)c3)nc21` [Example 47], the IC50 at B7-1/CD28 stood at 280 nM. Against the preceding molecule, the IC50 is about 2.5-fold higher.

For `COCCCNC(=O)c1cccc(-n2[nH]c3c(c(-c4cccc(C(F)(F)F)c4)nc4c3cnn4C)c2=O)c1` [Example 63], the IC50 on B7-1/CD28 stood at 180 nM.

`Cn1ncc2c3[nH]n(-c4cccc(C(=O)Nc5cccc(CO)c5)c4)c(=O)c3c(-c3cccc(C(F)(F)F)c3)nc21` [Example 50] showed an IC50 at B7-1/CD28 of 100 nM. Compared with the last molecule, the IC50 is about 1.8-fold lower.

On to `CN(CCO)C(=O)c1cccc(-n2[nH]c3c(c(-c4cccc(C(F)(F)F)c4)nc4c3cnn4C)c2=O)c1` [Example 14], for which, on B7-1/CD28, the IC50 turned out to be 61 nM.

`Cc1c(CO)cccc1NC(=O)c1ccc(-n2[nH]c3c(c(-c4cccc(C(F)(F)F)c4)nc4c3cnn4C)c2=O)cc1` [Example 84] yielded an IC50 on B7-1/CD28 of 90 nM. The IC50 values of the last two molecules are within 1.5-fold of each other.

For the molecule `Cn1ncc2c3[nH]n(-c4ccc(C(=O)Nc5cccnc5)cc4)c(=O)c3c(-c3cccc(C(F)(F)F)c3)nc21` [Example 79], the IC50 on B7-1/CD28 was 180 nM.

Consider `Cn1ncc2c3[nH]n(-c4ccc(S(=O)(=O)NCc5ccccc5)cc4)c(=O)c3c(-c3cccc(C(F)(F)F)c3)nc21` [Example 103, N-benzyl-4-[6-methyl-3-oxo-4-(3-trifluoromethyl-phenyl)-3,6-dihydro-1H-1,2,5,6,7-pentaaza-as-indacen-2-yl]-benzenesulfonamide], for which the IC50 at B7-1/CD28 is 1500 nM.

`Cn1ncc2c3[nH]n(-c4cccc(C(=O)NCc5ccccc5)c4)c(=O)c3c(-c3cccc(C(F)(F)F)c3)nc21` [Example 49] returned a concentration for half-maximal inhibition (IC50) at B7-1/CD28 of 120 nM.

In the case of `CCN(CC)C(=O)C1CCCN(C(=O)c2ccc(-n3[nH]c4c(c(-c5cccc(C(F)(F)F)c5)nc5c4cnn5C)c3=O)cc2)C1` (stereo not drawn) [Example 88], at B7-1/CD28, the IC50 came out at 290 nM.

`Cn1ncc2c3[nH]n(-c4ccc(S(=O)(=O)NCCO)cc4)c(=O)c3c(-c3cccc(C(F)(F)F)c3)nc21` [Example 104, N-(2-hydroxyethyl)-4-(6-methyl-3-oxo-4-[3-(trifluoromethyl)phenyl]-3,6-dihydrodipyrazolo[3,4-b:3,4-d]pyridin-2(1H)-yl)benzenesulfonamide] registered an IC50 on B7-1/CD28 of 950 nM.

In turn, `Cn1ncc2c3[nH]n(-c4ccc(C(=O)NCc5ccc(F)cc5)cc4)c(=O)c3c(-c3cccc(C(F)(F)F)c3)nc21` [Example 91] returned an IC50 on B7-1/CD28 of 67 nM.

Take `Cn1ncc2c3[nH]n(-c4cccc(C(=O)N5CCOCC5)c4)c(=O)c3c(-c3cccc(C(F)(F)F)c3)nc21` [Example 6]: the IC50 at B7-1/CD28 was found to be 54 nM.

In turn, `Cn1ncc2c3[nH]n(-c4cccc(C(=O)NN)c4)c(=O)c3c(-c3cccc(C(F)(F)F)c3)nc21` [Example 44] yielded an IC50 on B7-1/CD28 of 80 nM.

With `COC(=O)CNC(=O)c1cccc(-n2[nH]c3c(c(-c4cccc(C(F)(F)F)c4)nc4c3cnn4C)c2=O)c1` [Example 45], the IC50 at B7-1/CD28 worked out at 100 nM.

At B7-1/CD28, `Cn1ncc2c3[nH]n(-c4ccc(C(=O)Nc5ccc(O)cc5)cc4)c(=O)c3c(-c3cccc(C(F)(F)F)c3)nc21` [Example 73] came in with a concentration for half-maximal inhibition (IC50) of 11 nM.

As to `Cn1ncc2c3[nH]n(-c4ccc(C(=O)NCC5CC5)cc4)c(=O)c3c(-c3cccc(C(F)(F)F)c3)nc21` [Example 75], the IC50 on B7-1/CD28 amounted to 107 nM.

With `CCN(CC)C(=O)C1CCCN(C(=O)c2cccc(-n3[nH]c4c(c(-c5cccc(C(F)(F)F)c5)nc5c4cnn5C)c3=O)c2)C1` (stereo not drawn) [Example 58], the IC50 at B7-1/CD28 was 110 nM.

`CC(O)c1cccc(NC(=O)c2cccc(-n3[nH]c4c(c(-c5cccc(C(F)(F)F)c5)nc5c4cnn5C)c3=O)c2)c1` (stereo not drawn) [Example 51] yielded an IC50 on B7-1/CD28 of 130 nM. The IC50 values of the last two molecules are within 1.5-fold of each other.

Regarding `Cn1ncc2c3[nH]n(-c4ccc(S(=O)(=O)NCC(=O)O)cc4)c(=O)c3c(-c3cccc(C(F)(F)F)c3)nc21` [Example 107, ({[4-(6-methyl-3-oxo-4-[3-(trifluoromethyl)phenyl]-3,6-dihydrodipyrazolo[3,4-b:3,4-d]pyridin-2(1H)-yl)phenyl]sulfonyl}amino)acetic acid], the IC50 on B7-1/CD28 worked out at 450 nM.

For `COC(=O)[C@H]1CCCN1C(=O)c1cccc(-n2[nH]c3c(c(-c4cccc(C(F)(F)F)c4)nc4c3cnn4C)c2=O)c1` [Example 53], the IC50 on B7-1/CD28 stood at 270 nM.
